This is an account of results in article PMC9571608, “Detection of Bitterness in Vitamins Is Mediated by the Activation of Bitter Taste Receptors” (Nutrients, 2022).

The target in experiment [1] is T1, TAS2R1 (Homo sapiens, UniProt Q9NYW7). As to the method:
(§1) A functional expression study was carried out as described previously. TAS2R expression vectors (pcDNA5FRT-SST3-TAS2R-HSV and pEAK-10-SST3-TAS2RHSV) were kindly provided by Wolfgang Meyerhof (German Institute of Human Nutrition Postdam-Rehbruecke, Nuthetal, Germany). For all constructs, the N-terminus contained the first 45 amino acids of rat somatostatin 3 (SST3) to improve membrane targeting. A sequence coding for a herpes simplex virus glycoprotein D epitope (HSV-tag) was added at the C-terminus to allow immunocytochemical detection of the receptor [13, 14, 23, 24]. HEK293T cells stably expressing the chimeric G protein α subunit Gα16gust44 [25, 26] were seeded into poly-D-lysine-coated 96-well black plates (0.35 × 10^5 cells/well) in high-glucose DMEM supplemented with 2 mM GlutaMAX, 10% dialysed fetal bovine serum penicillin/streptomycin, and G418 (400 µg/mL), and then placed under a humidified and controlled atmosphere (37 °C and 6.3% CO2) overnight. […]
(§2) Approximately 24–26 h after transfection, cells were loaded for 1 h at 37 °C with Fluo4-AM (2 µM, Molecular Probes), which had been previously mixed with pluronic acid F-127 (0.01%) in C1 buffer (130 mM NaCl, 5 mM KCl, 10 mM HEPES, 2 mM CaCl2, 10 mM pyruvic acid, pH 7.4, 300 mOsm) containing 2.5 mM probenecid (Life Technologies). […] The calcium signal was recorded for 90 s after injection of a range of compounds using a Flexstation 3 fluorometric imaging plate reader (Molecular Devices) at a wavelength of 510 nm after excitation at 488 nm. All substance concentrations were measured in triplicate in at least three independent experiments. […]
(§3) To obtain a dose–response curve, the ratio between the maximum variation in fluorescence after ligand addition and the initial fluorescence before addition (ΔF/F0) was calculated for each well. The fluorescence signals collected for each replicate were averaged for the same substance concentration, and the fluorescence changes in the corresponding mock-transfected cells were subtracted. […]

The target of experiment [2] is T2, TAS2R39 (Homo sapiens, UniProt P59534). Conditions: vitamin B1 as thiamine hydrochloride, up to M.A.C 1 mM. The procedure:
as §1, §2, §3

A further experiment has as its system 25 human TAS2Rs. Description: Taste receptor functional assay, panel of 25 human TAS2Rs. Conditions: lowest concentration that could elicit TAS2R activation. Type of experiment: cell-based. As to the method: A functional expression study was carried out as described previously. TAS2R expression vectors (pcDNA5FRT-SST3-TAS2R-HSV and pEAK-10-SST3-TAS2RHSV) were kindly provided by Wolfgang Meyerhof (German Institute of Human Nutrition Postdam-Rehbruecke, Nuthetal, Germany). For all constructs, the N-terminus contained the first 45 amino acids of rat somatostatin 3 (SST3) to improve membrane targeting. A sequence coding for a herpes simplex virus glycoprotein D epitope (HSV-tag) was added at the C-terminus to allow immunocytochemical detection of the receptor [13, 14, 23, 24]. […]
as §2

Experiment [3] concerns human bitter taste detection (sensory panel). As to the kind of experiment: Human bitter taste detection threshold, three-alternative forced choice (3-AFC), BET method. Type of experiment: in vivo. Conditions: 32 panelists, group BET. An excerpt: Based on bibliographic studies, preliminary works performed in the laboratory, and the results of taste receptor functional assays, the following vitamins were included in this study: vitamin B1 (thiamine hydrochloride), vitamin B2 (riboflavin phosphate), vitamin B3 (niacinamide), and vitamin B6 (pyridoxine hydrochloride). These vitamins are present in high quantities in nutritional supplements, safe for humans (except at very high concentrations), and can induce a strong bitter taste. These concentrations were determined according to the toxicity threshold of each compound tested and the maximum daily reference intake. These compounds were prepared in commercial mineral water (Evian®, Evian, France).
The threshold values for bitter taste detection were determined by 32 panelists (18–65 years old, 14 males and 18 females, without sensory perception disorders, food allergies, drug treatments, or heart, lung, or cardiac pathologies) who were recruited from Dijon (France) and the surrounding areas. An ethical committee approved this study (Personal Protection Committee of Rennes—Ouest V, protocol code 2018A01342-53), and all panelists signed an informed consent form. A sensory test called three-alternative forced choice (3-AFC) was used in accordance with the protocol detailed in NF ISO 13301. Before performing the measurement sessions, four training sessions were provided to familiarize the panelists with the bitter taste, test procedure, and signal acquisition software. In this discriminative test, six series consisting of three samples, which were each encoded using randomly generated three-digit numbers, were simultaneously delivered to the panelists. The six 3-AFC presentations contained two blank samples (commercial mineral water, manufacturer: Evian, France) and ascending concentrations of vitamin solution. Before the test, subjects were advised that each presentation consisted of two samples that contained only water and one sample that contained a taste. For each 3-AFC presentation, subjects were asked to take the samples sequentially from left to right. Then, they placed the entirety of each sample solution in their mouths and carefully gargled to ensure that the solution was dispersed throughout the mouth. A sip-and-spit procedure was used; subjects rinsed their mouths with commercial mineral water between each series of tests. Subjects were asked to indicate which of the samples contained the stimulus. If a subject perceived no difference between the three samples, he or she was asked to choose one (forced choice). The sensory tests were conducted in a room devoted to sensory evaluation. For the case of colored samples, black-colored glasses were used, and tastings were performed under red light. […] The aim of this sensory analysis was to determine the bitter taste detection threshold for these vitamins and not an olfactory detection threshold. Therefore, the measurements were conducted using pinched nose clips. The subjects waited one minute between each series and had to thoroughly rinse their mouths. Four repetitions were performed per subject for each vitamin to obtain statistically interpretable results, which represented a total of 288 samples. During the sensory analysis session, a bitterness detection threshold of only two vitamins was used (36 samples) to avoid the ingestion of a high vitamin quantity, which is potentially harmful. The answers from the panelists were collected using software dedicated to sensory analysis (FIZZ acquisition V.2.51 software).
The best estimate threshold (BET) method was used to determine the bitter detection threshold for four vitamins. The individual best-estimated detection threshold (BET) was proposed in ASTM E679-04. ASTM E679-04 is a standard practice for the determination of odor and taste thresholds via a forced-choice ascending concentration series method of limits. […]

For experiment [4], the target named is T1, TAS2R1. Conditions: cited from earlier work.
For experiment [5], the target named is T3, TAS2R7 (Homo sapiens, UniProt Q9NYW3).
T3 sequence (Q9NYW3 1-318): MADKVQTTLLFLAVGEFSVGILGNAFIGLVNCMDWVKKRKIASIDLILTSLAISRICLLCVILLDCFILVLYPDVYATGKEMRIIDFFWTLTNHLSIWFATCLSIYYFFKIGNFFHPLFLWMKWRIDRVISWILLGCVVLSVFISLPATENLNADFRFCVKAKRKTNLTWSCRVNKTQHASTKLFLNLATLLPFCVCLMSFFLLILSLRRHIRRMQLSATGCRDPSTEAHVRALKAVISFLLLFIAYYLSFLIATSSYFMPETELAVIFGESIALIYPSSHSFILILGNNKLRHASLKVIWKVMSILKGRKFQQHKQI
Conditions: cited from earlier work.

In experiment [6] the target is T2, TAS2R39. Conditions: cited from earlier work.
In experiment [7] the target is T3, TAS2R7. As to the kind of experiment: Calcium mobilization assay, cells transiently expressing TAS2R7. Conditions: vitamin B1 as thiamine hydrochloride, up to M.A.C 1 mM. Details: expressed in transfected cells; host or cells: HEK293T cells stably expressing Gα16gust44. In kind it is cell-based. As to the method: A functional expression study was carried out as described previously. TAS2R expression vectors (pcDNA5FRT-SST3-TAS2R-HSV and pEAK-10-SST3-TAS2RHSV) were kindly provided by Wolfgang Meyerhof (German Institute of Human Nutrition Postdam-Rehbruecke, Nuthetal, Germany). For all constructs, the N-terminus contained the first 45 amino acids of rat somatostatin 3 (SST3) to improve membrane targeting. A sequence coding for a herpes simplex virus glycoprotein D epitope (HSV-tag) was added at the C-terminus to allow immunocytochemical detection of the receptor [13, 14, 23, 24]. HEK293T cells stably expressing the chimeric G protein α subunit Gα16gust44 [25, 26] were seeded into poly-D-lysine-coated 96-well black plates (0.35 × 10^5 cells/well) in high-glucose DMEM supplemented with 2 mM GlutaMAX, 10% dialysed fetal bovine serum penicillin/streptomycin, and G418 (400 µg/mL), and then placed under a humidified and controlled atmosphere (37 °C and 6.3% CO2) overnight. After 24–26 h of incubation, cells were transiently transfected with TAS2R expression plasmids (120 ng/well) using Lipofectamine 2000 reagent (0.4 µL/well) (Thermo Fisher Scientific, Illkirch-Graffenstaden, France).
Approximately 24–26 h after transfection, cells were loaded for 1 h at 37 °C with Fluo4-AM (2 µM, Molecular Probes), which had been previously mixed with pluronic acid F-127 (0.01%) in C1 buffer (130 mM NaCl, 5 mM KCl, 10 mM HEPES, 2 mM CaCl2, 10 mM pyruvic acid, pH 7.4, 300 mOsm) containing 2.5 mM probenecid (Life Technologies). Approximately one hour after loading, the plate was rinsed twice with 100 µL of C1 buffer. The calcium signal was recorded for 90 s after injection of a range of compounds using a Flexstation 3 fluorometric imaging plate reader (Molecular Devices) at a wavelength of 510 nm after excitation at 488 nm. All substance concentrations were measured in triplicate in at least three independent experiments. As cell transfection and substances can interfere with cellular viability and calcium assays, all compounds were tested on mock-transfected cells (cells transfected with empty vectors) on the same plates for all substance concentrations used.
To obtain a dose–response curve, the ratio between the maximum variation in fluorescence after ligand addition and the initial fluorescence before addition (ΔF/F0) was calculated for each well. The fluorescence signals collected for each replicate were averaged for the same substance concentration, and the fluorescence changes in the corresponding mock-transfected cells were subtracted. […] The dose–response data were fitted, and EC50 values were calculated using a four-parameter logistic equation using SigmaPlot software (Systat Software, San Jose, CA, USA). […]

Values joined by “and” are separate entries in the source; they are usually repeats but may differ in a detail not shown here. Equal entries are not always repeated. Structures can show the parent of a compound that is named as a salt. Where two headings read alike, the source gives them in different places.

T1 sequence (Q9NYW7 whole entry): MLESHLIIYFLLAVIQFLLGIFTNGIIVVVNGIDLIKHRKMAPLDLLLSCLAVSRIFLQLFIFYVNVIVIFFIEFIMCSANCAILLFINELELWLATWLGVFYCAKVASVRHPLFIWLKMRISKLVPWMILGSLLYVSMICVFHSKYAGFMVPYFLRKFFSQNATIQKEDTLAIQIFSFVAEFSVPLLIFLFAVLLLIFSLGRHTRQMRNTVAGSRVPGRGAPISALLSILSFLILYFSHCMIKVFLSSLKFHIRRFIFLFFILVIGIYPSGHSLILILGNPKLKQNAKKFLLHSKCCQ
T2 sequence (P59534 whole entry): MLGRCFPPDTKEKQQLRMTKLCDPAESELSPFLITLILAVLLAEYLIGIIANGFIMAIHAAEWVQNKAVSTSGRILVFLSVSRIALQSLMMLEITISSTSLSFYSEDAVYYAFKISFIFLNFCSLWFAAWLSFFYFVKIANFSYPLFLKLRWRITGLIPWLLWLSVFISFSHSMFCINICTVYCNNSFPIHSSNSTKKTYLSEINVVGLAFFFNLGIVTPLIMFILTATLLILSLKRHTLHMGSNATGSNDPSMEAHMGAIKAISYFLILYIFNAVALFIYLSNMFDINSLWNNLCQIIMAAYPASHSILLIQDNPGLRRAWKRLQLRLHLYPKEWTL

For `Cc1ncc(C[n+]2csc(CCO)c2C)c(N)n1` [Vitamin B1, thiamine hydrochloride], the TAS2R1 activation result on TAS2R1 [1] (0.1 mM) and at TAS2R1 [4] was “activation” each time. In addition, the “TAS2R Receptor 1 response” value on TAS2R1 [1] (HEK293T-Gα16gust44 cells, calcium signal, up to M.A.C) was “+”. Moreover, the TAS2R39 activation result at TAS2R39 [2] is given as “unable to demonstrate the activation”; at TAS2R39 [6], “activation”. For the same compound, the “Cellular Bitter Taste Detection Threshold” value in the experiment with 25 human TAS2Rs was 0.1 mM and 0.10 mM. In addition, the “Human Bitter Taste Detection Threshold” value in experiment [3] (Figure 3, aqueous solution) came out at 1.1 mM; in experiment [3] (aqueous solution (mineral water), nose clips, listed as B1) it was 1.10 mM; in experiment [3] (aqueous solution (mineral water), nose clips, listed as vitamin B1), 1.1 mM. For the same compound, the TAS2R7 activation entry on TAS2R7 [5] was “activation”; on TAS2R7 [7], “unable to demonstrate the activation”.
